Test: in vitro
Details: human, hela cells, % viability

Row | SMILES | viability at 28.5 h, 10 µM [%]
1 | N#Cc1ccc(NC(=O)CC2(CC(=O)O)CCCC2)cc1 [CBK286979] | 89.5
2 | O=C(NCc1ccc(C(=O)O)cc1)NC1CCCCC1 [CBK286980] | 84.5
3 | O=C(O)c1oc2ccccc2c1CSc1ccccn1 [CBK286981] | 89.5
4 | O=C(O)C1C2C=CC(O2)C1C(=O)NCCCc1ccccc1 (stereo not drawn) [CBK286982] | 93.3
5 | O=C(O)CC(c1ccccc1)c1ccc2c(c1)OCO2 (stereo not drawn) [CBK286983] | 87.8
6 | O=C(O)CC(Cc1ccc(Cl)cc1)C(=O)NCc1ccccc1 (stereo not drawn) [CBK286984] | 89.4
7 | Cc1ccc(S(=O)(=O)NC(C(=O)O)c2ccccc2)cc1 (stereo not drawn) [CBK286985] | 106
8 | Cc1ccc(-n2nc(C(=O)O)c(C)c(C#N)c2=O)cc1C [CBK286987] | 93.3
9 | CS(=O)(=O)N(CC(=O)O)c1cccc(C(F)(F)F)c1 [CBK286988] | 87.8
10 | COc1ccc(-c2cc(C(=O)O)nn2C2CCS(=O)(=O)C2)cc1 (stereo not drawn) [CBK286990] | 87.8
11 | O=C(O)CCSCC(=O)c1ccc(OC(F)F)cc1 [CBK286991] | 84.6
12 | CCc1nnc(SCc2cccc(C(=O)O)c2)o1 [CBK286993] | 95.7
13 | O=C(O)C1CSC(c2ccc(-c3cccc(Cl)c3)o2)N1 (stereo not drawn) [CBK286997] | 97.5
14 | Cc1cc2n(n1)C(c1ccc(C(=O)O)cc1)Nc1ccccc1-2 (stereo not drawn) [CBK287000] | 80.8
15 | CC(C)(C)N1C(=O)c2ccc(C(=O)Nc3ccccc3C(=O)O)cc2C1=O [CBK287004] | 112
16 | O=C(O)c1ccccc1N1C(=O)C2CC=C(Cl)CC2C1=O (stereo not drawn) [CBK287007] | 94.4
17 | O=C(O)c1ccc2c(c1)C1C=CCC1C(c1cccc([N+](=O)[O-])c1)N2 (stereo not drawn) [CBK287008] | 94.7
18 | O=C(N[C@@H](Cc1ccc(O)cc1)C(=O)O)OCc1ccccc1 [CBK287012] | 94.8
19 | CC(C)(C)c1ccc(OCC(=O)Nc2ccc(OCC(=O)O)cc2)cc1 [CBK287013] | 113
20 | Cn1cc(NC(=O)c2ccc(COc3c(F)c(F)cc(F)c3F)o2)c(C(=O)O)n1 [CBK287014] | 98.5
21 | O=C(O)CCC(=O)Nc1ccccc1Sc1ccc(Cl)cc1 [CBK287015] | 99.4
22 | COc1cc(S(=O)(=O)Nc2ccc(CC(=O)O)cc2)ccc1Cl [CBK287019] | 107
23 | CC(=O)Nc1ccc(N2CC34C=CC(O3)C(C(=O)O)C4C2=O)cc1 (stereo not drawn) [CBK287020] | 100
24 | COc1ccc(C(=O)Nc2ccccc2C(=O)NCCCC(=O)O)cc1 [CBK287024] | 111

Row | SMILES | viability at 28.5 h, 10 µM [%]
25 | Cc1ccc(NC(=O)COc2ccccc2/C=C/C(=O)O)cc1C [CBK287026] | 111
26 | Cc1ccccc1OCC(=O)Nc1ccc(C(=O)O)c(Cl)c1 [CBK287027] | 83.6
27 | COc1ccc(C(=O)O)cc1CN1CCOCC1 [CBK287029] | 102
28 | COc1cc(C(=O)O)ccc1Oc1cnn(-c2ccccc2)c(=O)c1Cl [CBK287032] | 94.9
29 | CC(=O)c1c(C(C)=O)c(C)n(-c2ccc(C(=O)O)cc2)c1C [CBK287036] | 90.9
30 | O=C(O)c1ccc(OCCN2CCOCC2)cc1 [CBK287038] | 94.5
31 | CCC(C(=O)O)N1C(=O)NC2C1N(C)C(=O)N2C (stereo not drawn) [CBK287039] | 79.9
32 | O=C(CN1C(=O)c2ccccc2C1=O)Nc1cccc(C(=O)O)c1 [CBK287040] | 110
33 | O=C(CCCN1C(=O)c2ccccc2C1=O)Nc1ccc(C(=O)O)cc1 [CBK287043] | 94.2
34 | COc1cc(CNc2ccccc2Cl)ccc1OCC(=O)O [CBK287045] | 89.7
35 | O=C(Cc1ccccc1)Nc1ccc(C(=O)O)cc1NC(=O)Cc1ccccc1 [CBK287049] | 108
36 | Cc1c(-c2ccc(OCC(N)=O)cc2)nc2ccc(Br)cc2c1C(=O)O [CBK287050] | 93.1
37 | Cc1nn(Cc2ccc(Cl)cc2)c(C)c1NC(=O)CCC(=O)O [CBK287051] | 88.5
38 | NC(CC(=O)O)c1ccc(OCCc2ccccc2)cc1 (stereo not drawn) [CBK287053] | 91.6
39 | O=C(O)CCc1ccc(S(=O)(=O)NCc2ccccc2)cc1 [CBK287054] | 79.8
40 | O=C(O)CCCn1cc(NC(=O)CCc2ccccc2)cn1 [CBK287055] | 86.4
41 | O=C(O)C(Cc1c[nH]c2ccccc12)N1Cc2ccccc2C1=O (stereo not drawn) [CBK287056] | 82
42 | O=C(NC1CCCCC1)c1cc(NC(=O)c2ccccc2C(=O)O)ccc1Cl [CBK287062] | 96.3
43 | COc1ccc(-c2nc3ccccn3c2CN2CCC(C(=O)O)CC2)cc1OC [CBK287063] | 89.9
44 | O=C(O)COCC(=O)NC12CC3CC(CC(C3)C1)C2 [CBK287065] | 97.9
45 | Cc1n[nH]c(NC(=O)/C=C/C(=O)O)c1-c1ccc(F)cc1 [CBK287068] | 96.7
46 | Cc1oc2ccc(NS(=O)(=O)c3ccccc3)cc2c1C(=O)O [CBK287071] | 95.3
47 | O=C(O)CC(C(=O)N1CCOCC1)N1CCCCC1 (stereo not drawn) [CBK287074] | 98.7
48 | O=C(O)c1ccc2[nH]cc(CN3CCOCC3)c2c1 [CBK287081] | 89.9
